{"source": "patent US10213425B2", "about": "“Role of N-2-hydroxy-ethyl-piperazine-N′-2-ethane sulfonic acid (HEPES) in pain control and reversal of demyelinization injury” (Bespoke Bioscience, LLC, priority 2009, dated 2019)", "key": {"[1]": {"system": "Multiple Sclerosis", "experiment": "Clinical case, Multiple Sclerosis patient (Example 1)", "assay_type": "in vivo, human", "details": "MS patient", "description": "patient four is a public elementary school teacher, who was diagnosed with MS when they were […].\nMentally, they often experienced periods of lack of concentration and follow-through of immediate projects, generalized muscular stiffness and lack of fine motor coordination with episodes of lurching gait and imbalance. Very bothersome was their manual discoordination which adversely influenced their writing on the chalk board. Indeed, the symptoms were so frequent that their teaching contract was not renewed. They subsequently obtained employment at an academically excellent small Episcopal school where the classes were small and the stress level was considerably less compared with the public school system.\nDespite these changes of venue, they had more frequent exacerbations and remissions and experienced multiple medication programs with their very concerned neurologist physician. They continued to use block letters on the blackboard rather than cursive black-board writing as a form of communicating with their students.\nAfter a particularly severe episode of problems, they completely lost the ability to write (e.g., writing a payment check) owing to the loss of manual sensory function and erratic motor movements. The present inventors were asked to see them by the school administrator, who served as their friend and confidant. […]"}, "[2]": {"system": "Cerebral Palsy", "experiment": "Clinical case, cerebral palsy patient (Example 2)", "assay_type": "in vivo, human", "details": "oral 5,000 mg daily", "description": "patient five is a child of extraction, whose birthing was extremely difficult, and very probably associated with some degree of neonatal asphyxia, although this was not seriously reflected in the Apgar Score. The person has had superb medical care all their life long with loving and supportive parents able to provide recommended therapies.\nDespite the abundance of treatment programs, it required nearly five years for […] to walk slowly in an unassisted manner. Amazingly, their speech pattern and intellectual capabilities were remarkably functional. A major problem was their significant dysfunction with motor skills in their hands. M.S. was given an oral dosage of HEPES of 5,000 mg daily (2 tsps with breakfast, 1 tsp mid-afternoon, and 2 tsps at bedtime). […] After 8 months of therapy, their walking and manual skills have improved to 85% of normal. They became devoted to spending several hours daily on the computer and the amount of knowledge they have acquired and retained is, indeed, phenomenal. The change in this young person has been outstanding and truly gratifying to their parents, their siblings, and especially their physicians."}, "[3]": {"system": "Post Chemotherapy Cognitive Impairment (PCCI)", "experiment": "Clinical case, post chemotherapy cognitive impairment (Example 3)", "assay_type": "in vivo, human", "details": "PCCI patient, oral 5,000 mg daily in divided doses, after a month", "description": "patient two is a person who, prior to their diagnosis of breast cancer, has been in charge of the family business involving a host of necessary transactions, including maintenance of financial records and tax liabilities. Post chemotherapy they had profound difficulty remembering what day it was, what time it was, had they taken their morning bath, what to cook for any meal, forgetfulness as to daily chores, transporting their children to school-sponsored events, suddenly breaking telephone conversations with their concerned parent without any recall of the action. The major deficit business-wise was the inability to perform simple mathematical calculations. […] They thought they “was going bonkers!” Their parent inquired as to what could be done to alleviate the rapidly deteriorating family problems. A trial on HEPES was recommended as the symptoms were, at least in part, related to demyelination. They were started on oral HEPES, 5,000 mg daily in divided doses. […] They continue to show improvement in a gratifying manner."}, "[4]": {"system": "Parkinson's Disease", "experiment": "Clinical cases, Parkinson's Disease patients (Examples 4 and 5)", "assay_type": "in vivo, human", "description": "[…] The family history is positive. They have been tried on a variety of Parkinsonian medications, the beneficial actions of which seem to disappear within a few months.\nThe hand tremor was present only to a small degree, but the head tremors and tics were very prominent to the degree that […] would become nauseated if […] kept […] vision pinpointed.\npatient one is a person who has had Parkinsonian symptoms since they were […]. They were placed on levo-dopa with gradual increases to six per day along with large doses of Mirapex and polyethylene glycol for their problem with constipation. Their constipation was really quite intractable with abdominal distention and protrusion, nausea and vomiting. Also very worrisome was their diminished deglutitionary activity and tongue biting with oral bleeding. They were unable to stand without assistance and their hesitant walk favored the festinative aspects. […] Over time the daily dosage of levodopa was reduced from the prescribed 6 per day to 2 per day to which a small dose of the dopamine agonist, bromocriptine, was added with singularly beneficial results. Their condition improved to the extent that they were again able to drive themself to the store, buy gasoline, and eat out. Most, most gratifying, indeed!\nThey were placed on an active bowel treatment program with good results which, when required was supplemented with an enema q.o.d. They continued to be monitored closely."}, "[5]": {"system": "Cancer of the Pancreas", "experiment": "Clinical case, cancer of the pancreas with metastases: analgesic and anti-tumor activity (Example 6)", "assay_type": "in vivo, human", "protocol": "The pain was not relieved by passing bowel movements or any other maneuver. They were seen by their personal physician, who diagnosed Type II diabetes mellitus. They were placed on anti-diabetic medication and diet. No additional studies related to the abdominal pain were carried out, even though they were peculiar in a patient with diabetes. Their diabetic state was under satisfactory control with a few weeks, but the abdominal pain problem persisted.\nThe abdominal pains increased in intensity with new severe pains in the mid-dorsal thoracic spine. […] They underwent radiation treatments for the thoracic lesions which eased, to a limited extent, the pain in this area.\nIn consultation with the patient ombudsmen group at M. D. Anderson Hospital in Houston, Tex., the family was told that none of the current study protocols were appropriate for their current condition of cancer of the pancreas with wide-spread metastases and such advanced disease. They were given 2-4 months to live. It was recommended that they be treated with pain protocols by the local institutions in the Dallas-Fort Worth area. They were treated by their personal physician who placed them on opiate analgesics for pain control.\nIn February, 2006, their personal physician contacted the present inventors concerning the possible addition of HEPES as they were receiving the maximal level of opiate medication, which was not controlling the pain the patient was experiencing. In March, 2006, they were placed on a daily dosage of the product administered by intravenous infusion, while continuing their maximum opiate analgesic medication.\nIn July, 2006, they developed significant anorexia, probably secondary to the increasing levels of endogenous TNF-alpha (cachectic factor). Dronabinol was recommended, but refused by the patient owing to the medication being derived from marijuana. Thereafter, natural source inhibitors of cachectic factor (Table 2) were recommended, but the patient refused to take any of these as they felt these might interfere with the pain control, which was acceptable. They were then offered parenteral nutritional support, which they declined.\nFrom mid-November, 2006, […] developed weakness associated with continued weight loss, and from late November became bed-ridden. […] 2006. While the death certificate lists the cause of death as cancer of the pancreas, in truth the cause of death was terminal anorexia, inanition, and malnutrition, with more than 65 pound weigh loss."}, "[6]": {"system": "Pediatric Autoimmune Neurological Disease Associated with Strep (PANDAS)", "experiment": "Clinical case, Pediatric Autoimmune Neurological Disease Associated with Strep (PANDAS) (Example 7)", "assay_type": "in vivo, human", "details": "for frequency of athetotic movements: intravenous"}, "[7]": {"system": "Benzodiazepine Withdrawal Symptoms", "experiment": "Clinical case, benzodiazepine withdrawal symptoms (Example 8)", "assay_type": "in vivo, human", "description": "patient five is a person, who was initially placed on benzodiazepine medication for panic attacks which presented. They have been on various forms of medications constituting this group for more than three decades. The dilemma which exists is that often the original condition for which the diazepines are prescribed are considered to be psychiatric in nature. When pain and neurological symptoms appear associated with withdrawal, it is often misdiagnosed with additional medications given which compounds the problem. These medications are recommended for short term treatment (4-6 weeks) only, but as with this patient, usage extends over years. One of the major withdrawal symptoms include violent repetitive “tics” which are considerably worsened with emotional situations and other stressors. Abnormal ideation often takes the form of bizarre thoughts as the functioning of the superego is marked impaired. Thus, these patients do things which under normal conditions would never contemplate, much less act out. As a result of these factors, our patient lost their successful business, their houses, and their family comprised of their spouse and three beautiful daughters. They walk with a hopping motion associated with bizarre flailing movements of the shoulder and arms. On the internet are listings of more than 300 withdrawal symptoms. The present inventors were consulted on this patient to see if we could ameliorate their extreme pain problems. Their neurologic examination was truly strange. […] They were started on HEPES by the oral route. […] They will be closely monitored as to their condition with additional treatment."}, "[8]": {"system": "Chronic Inflammatory Demyelinating Polyradiculoneuropathy (CIDP)", "experiment": "Clinical case, Chronic Inflammatory Demyelinating Polyradiculoneuropathy (Example 9)", "assay_type": "in vivo, human", "details": "daily oral product, after three weeks", "description": "patient three is a person who presents with a history of multiple allergies, infections (including viral meningitis/aseptic encephalitis), multiple episodes of antibiotic treatments, etc. They describe their physical status historically as follows: “I have been seriously ill since 1991 with progressive neurologic deficits, which culminated with significant loss of motor control in 1993. The condition was misdiagnosed as Multiple Sclerosis with negative findings on Mill.” They initially ambulated slowly with the use of a cane. In 1994 they were paralyzed from the neck down. They were treated with Ig intravenously and recovered over a period of weeks. Five months later, they experienced a similar episode. This time the Ig therapy was only weakly helpful, and they as treated with therapeutic plasma exchanges every two weeks. They have recently been experiencing significant pains in their extremities and HEPES was started orally both for pain control and possible reinforcement of any myelinating defects, as our medical colleagues in the Netherlands have had significant success in reversing the demyelination process."}, "[9]": {"experiment": "General clinical administration of HEPES: effective dosage and tolerability", "assay_type": "in vivo, human", "protocol": "The product, HEPES, is produced in ultra-pure form and is available from GIBCOL Technologies, Inc. The product is administered on a body weight basis with the determined minimal effective daily dosage of 70-75 mg/kg. The material may be safely given either by oral or parenteral routes. […] The administered product is prepared by a compounding pharmacist, with the dosage of each patient recipient being individualized."}, "[10]": {"system": "cell cultures of both animal and human origin", "details": "studies not specified; cited from earlier work"}, "[11]": {"details": "Example 5 patient, 6,000 mg daily, continued treatment"}, "[12]": {"details": "continued daily product at 75 mg/kg"}}, "data": [{"compound": "O=S(=O)(O)CCN1CCN(CCO)CC1", "note": "[HEPES, N-2-hydroxyethylpiperazine-N′-2-ethanesulfonic acid]", "values": [{"measurement": "motor function and exacerbations on continued medication", "setting": "[1]; continued on the oral medication", "result": "maintained their motor function as well as being free of new exacerbations"}, {"measurement": "ability to write", "setting": "[1]; oral HEPES 5,000 mg daily, after only three days of treatment", "result": "regained the ability to write cursively and sign their name in a legible fashion"}, {"measurement": "walking and manual skills", "setting": "[2]; after 8 months of therapy", "result": "85 % of normal"}, {"measurement": "movement and control of hands and fingers", "setting": "[2]; after three weeks", "result": "improved to the point where they could selectively (upon oral command) depress the correct key on the computer"}, {"measurement": "walking pattern", "setting": "[2]; after three weeks", "result": "considerable improvement with significant reduction in ataxic characteristics"}, {"measurement": "brain fog (\"cloud\")", "setting": "[3]", "result": "the “cloud” was gone"}, {"measurement": "muscular fatigue, stiffness, and tics", "setting": "[4]; Example 4 patient, 5,000 mg daily in divided doses, within a three-week period", "result": "all disappeared"}, {"measurement": "patient-reported overall condition", "setting": "[4]; Example 4 patient, 5,000 mg daily, after another couple of weeks", "result": "felt like they were before the diagnosis was made"}, {"measurement": "daily dosage of levodopa needed", "setting": "[4]; Example 5 patient, 6,000 mg HEPES daily, over time, reduced from the prescribed 6 per day, bromocriptine added", "result": 2, "unit": "per day"}, {"measurement": "swallowing difficulties and tongue biting", "setting": "[4]; Example 5 patient, 6,000 mg daily in divided doses, within three days", "result": "obviated their swallowing difficulties and abrogated their tongue biting"}, {"measurement": "energy level", "setting": "[4]; [11]", "result": "improved significantly"}, {"measurement": "facial mask", "setting": "[4]; [11]", "result": "completely disappeared"}, {"measurement": "opiate side-effects", "setting": "[5]; HEPES administration with reduced opiate narcotic analgesia", "result": "elimination of opiate side-effects"}, {"measurement": "opiate analgesic dosage giving good pain control", "setting": "[5]; daily intravenous HEPES, narcotic medication slowly reduced over three months", "result": "about 25 % of the maximum dosage of the opiate analgesics"}, {"measurement": "pain", "setting": "[5]; daily intravenous infusion added to maximum opiate analgesic medication, after 5 days", "result": "completely controlled"}, {"measurement": "anti-tumor effect", "setting": "[5]; pancreatic cancer with wide-spread metastases, several additional months of quality living", "result": "a significant anti-tumor effect"}, {"measurement": "frequency of athetotic movements", "setting": "[6]; 70-75 mg/kg level achieved, end of the first week, 1,300-1,500 per day before", "result": "10-15 per day"}, {"measurement": "frequency of athetotic movements", "setting": "[6]; end of the second week", "result": "2-3 movements per day"}, {"measurement": "involuntary athetoid movements", "setting": "[6]; oral medication at the same daily dosage, during the next three weeks, triggered by emotional or stressful circumstances", "result": "infrequent involuntary athetoid movements"}, {"measurement": "tics after product withdrawn", "setting": "[6]; product decreased gradually, no product being given", "result": "tic-free"}, {"measurement": "athetoid movements", "setting": "[7]; [12]", "result": "significant reduction in their athetoid movements"}, {"measurement": "gait", "setting": "[7]; [12]", "result": "improved gait"}, {"measurement": "ideation", "setting": "[7]; [12]", "result": "more cogent ideation"}, {"measurement": "pain (jaws and teeth, shoulder joints and muscles, precordial chest, temples)", "setting": "[7]; [12]", "result": "significant relief of their pain"}, {"measurement": "dorsiflexion of left foot on neurologic examination", "setting": "[7]; oral route, after four days on the product", "result": "normal dorsiflexion of their left foot"}, {"measurement": "pain in extremities", "setting": "[8]", "result": "completely controlled"}, {"measurement": "weakness in lower extremities", "setting": "[8]", "result": "almost completely resolved"}, {"measurement": "minimal effective daily dosage", "setting": "[9]; administered on a body weight basis", "result": "70 to 75", "unit": "mg/kg"}, {"measurement": "side-effects", "setting": "[9]; general statement on the HEPES product", "result": "no side-effects"}, {"measurement": "side-effects", "setting": "[9]; oral and parenteral routes", "result": "without any significant side-effects"}, {"measurement": "cytotoxicity compared with other buffers", "setting": "[10]", "result": "least cytotoxicity of all the known buffers"}]}]}
